Results taken from US8580814B2, “Methods of using (+)-1,4-dihydro-7-[(3S,4S)-3-methoxy-4-(methylamino)-1-pyrrolidinyl]-4- oxo-1-(2-thiazolyl)-1,8-naphthyridine-3-carboxylic acid for treatment of cancer” (priority 2006, dated 2013).

Assays:
[1] = clinical; details: human, in vivo
Procedure: SNS-595 was administered to patients with advanced solid cancers as an IV infusion over 10 minutes on 2 schedules. In the first schedule (A), a weekly dose of SNS-595 was administered for three weeks followed by at least 7 days off (qwk×3). In the second schedule (B), a dose of SNS-595 was administered once every three weeks (q3wk).
In both schedules, the starting dose of SNS-595 was 3 mg/m^2, and doses were escalated by sequential cohorts of 3. The doses were doubled until the first related adverse event at or above Grade 2 or until the first abnormal lab value. The doses were then escalated by a modified Fibonacci schema.
For patients dosed according to schedule A, PK samples were collected on treatment Days 1 and 15 and were assayed using noncompartmental analysis. Plasma SNS-595 concentrations were determined using a validated LC-MS/MS assay. […] FIG. 1 depicts the plasma concentrations of SNS-595 over time among the various patient cohorts.
For patients dosed according to schedule B, pharmacokinetic parameters were evaluated in 36 patients (21 heavily pretreated and 15 minimally pretreated) after a single dose of 3 to 75 mg/m^2.
In study A, pharmacokinetics were assessed on Days 1 and 15 (after the first and third doses).

[2] = test system: M059J (DNAPKcs(−/−)) cells; experiment: Repair of DNA damage (gH2AX foci) in the absence of DNA-PK; assay type: cell-based; set-up: dose or concentration left out as unconfirmed; details: M059J vs M059K (wt), washout, 16 hours recovery
Procedure: Compound was then removed and cells were allowed to recover for 16 hours. Cells were analyzed for gH2AX foci before and after drug washout.

[3] = test system: HCT116 colon carcinoma cell line; experiment: Combination studies, MTT assay, Combination Index; assay type: cell-based
Procedure: Cell lines and Cell Culture: HCT116 and NCI-H460 cell lines were obtained from ATCC. SKOV3(p53−/−) and SKOV3(p53+/+) were obtained from the lab of Dr. George Stark of the Lerner Institute of the Cleveland Clinic. All cell lines were cultured in RPMI media supplemented with 10% FBS 1% Sodium Bicarbonate solution and 1% Antibiotic Solution (Cellgro).
MTT assay: Cells were plated at 4000 cells per well (except SKOV3 (p53−/−) which were plated at 8000 cells per well) in a 96 well plate, incubated for 24 hours and then treated with compound. Compound treatment lasted 72 hours. Cells were then incubated with 5% MTT for 1-2 hours, and lysed. MTT was colorimetrically read at 570 nm. The fraction of dead cells was determined by the following formula: Fraction of Dead cells=1−[Abs of sample well−Avg(Abs of no cell control)]/[Avg(Abs of DMSO only control)−Avg(abs of no cell control)]
Scheduling studies: When compounds were dosed with a schedule that included a washout, cells were washed with 100 μl of fresh warm media for 30 minutes, followed by another wash after 90 minutes.
Statistical Analysis: The data (Fraction of Dead cells) was analyzed using Calculsyn.V2 (Biosoft) and is herein represented as the value of the Combination Index at Fraction affected (Fa)=0.5. All data is shown with error bars indicating the 95% confidence intervals of the mean value.
A combination is said to be additive if it yields a Combination Index of 0.85-1.2. A combination is said to be synergistic if it yields a Combination Index less than 0.85 and a combination is said to be antagonistic if it yields a Combination Index of more than 1.2.

[4] = Solubility in acidic compositions; assay type: physicochemical; details: Acidic compositions (<pH 4)
Procedure: An illustrative example of a suitable composition comprises: 10 mg SNS-595 per mL of aqueous solution of 4.5% sorbitol that is adjusted to pH 2.5 with methanesulfonic acid. One protocol for making such a solution includes the following for making a 100 mg/10 mL presentation: 100 mg of SNS-595 and 450 mg D-sorbitol are added to distilled water; the volume is brought up to a volume of 10 mL; and the pH of the resulting solution is adjusted to 2.5 with methanesulfonic acid. The resulting composition is also suitable for lyophilization. The lyophilized form is then reconstituted with sterile water to the appropriate concentration prior to use.

[5] = co-dosed, or dosed with 24 hours delay, HCT116

## CN[C@H]1CN(c2ccc3c(=O)c(C(=O)O)cn(-c4nccs4)c3n2)C[C@@H]1OC [SNS-595, (+)-1,4-dihydro-7-[(3S,4S)-3-methoxy-4-(methylamino)-1-pyrrolidinyl]-4-oxo-1-(2-thiazolyl)-1,8-naphthyridine-3-carboxylic acid]
[1]
  AUC (area under curve) versus dose: increased proportionally with dose
  CL, averaged: 2 L/hr/m^2
  CL, volume of distribution and T1/2 across doses: remained unchanged
  Clearance (CL): 2.2 L/hr/m2
  Clearance (CL), range: 1.0-3.8 L/hr/m^2
  Exposure: 1600 to 15000 ng·h/mL
  T ½, Average: 21.3 ± 5.3 h
  T ½, Range: 13 to 56 h
  Vss, averaged: 53 L/m^2
  clearance (CL), averaged: 2 L/hr/m^2
  drug dependent alterations in pharmacokinetic parameters: No evidence of drug dependent alterations
  exposure: 1100 to 46000 ng·h/mL
  volume of distribution (Vss), averaged: 48 L/m^2
[1]; 3 mg/m2
  AUCinf: 1140 ± 260 ng·h/mL
  T ½: 16.4 ± 4.8 h
[1]; 3 mg/m2, AUCinf
  AUC(0-inf): 1710 ± 200 ng·h/mL
[1]; 3 mg/m2, T ½
  half-life: 23.3 ± 7.2 h
[1]; 6 mg/m2
  AUCinf: 3040 ± 320 ng·h/mL
  Cmax: 347 ± 220 ng/mL
  T ½: 22.2 ± 1.9 h
[1]; 6 mg/m2, AUCinf
  AUC(0-inf): 2090 ± 530 ng·h/mL
[1]; 6 mg/m2, Cmax
  Cmax: 531 ± 280 ng/mL
[1]; 6 mg/m2, T ½
  half-life: 13.5 ± 2.2 h
[1]; 12 mg/m2
  AUCinf: 6320 ± 220 ng·h/mL
  Cmax: 2250 ± 1070 ng/mL
  T ½: 18.0 ± 4.1 h
[1]; 12 mg/m2, AUCinf
  AUC(0-inf): 6810 ± 1680 ng·h/mL
[1]; 12 mg/m2, Cmax
  Cmax: 1840 ± 2700 ng/mL
[1]; 12 mg/m2, T ½
  half-life: 19.9 ± 5.3 h
[1]; 15 mg/m2
  T ½: 26.4 ± 15.2 h
  Vssobs: 43.8 ± 7.90 L/m^2
[1]; 15 mg/m2, AUCinf
  AUC(0-inf): 10800 ± 4700 ng·h/mL
[1]; 15 mg/m2, Cmax
  Cmax: 865 ± 318 ng/mL
[1]; 18 mg/m2
  Vssobs: 47.19 ± 8.06 L/m^2
[1]; 18 mg/m2, AUCinf
  AUC(0-inf): 8500 ± 2860 ng·h/mL
[1]; 18 mg/m2, Cmax
  Cmax: 1690 ± 830 ng/mL
[1]; 18 mg/m2, T ½
  half-life: 15.8 ± 4.2 h
[1]; 24 mg/m2
  AUCinf: 12630 ± 860 ng·h/mL
  T ½: 15.7 ± 3.2 h
[1]; 24 mg/m2, AUCinf
  AUC(0-inf): 15200 ng·h/mL
[1]; 24 mg/m2, T ½
  half-life: 24.2 h
[1]; 36 mg/m2
  T ½: 22.5 ± 4.2 h
  Vssobs: 61.4 ± 12.8 L/m^2
[1]; 36 mg/m2, AUCinf
  AUC(0-inf): 18000 ± 730 ng·h/mL
[1]; 36 mg/m2, Cmax
  Cmax: 3380 ± 1920 ng/mL
[1]; 48 mg/m2
  T ½: 26.4 ± 13.1 h
  Vssobs: 58.8 ± 14.5 L/m^2
[1]; 48 mg/m2, AUCinf
  AUC(0-inf): 29400 ± 11300 ng·h/mL
[1]; 48 mg/m2, Cmax
  Cmax: 3080 ± 1920 ng/mL
[1]; 60 mg/m2
  T ½: 25.0 ± 17.9 h
  Vssobs: 48.0 ± 7.3 L/m^2
[1]; 60 mg/m2, AUCinf
  AUC(0-inf): 40700 ± 23700 ng·h/mL
[1]; 60 mg/m2, Cmax
  Cmax: 3860 ± 1680 ng/mL
[1]; 75 mg/m2
  T ½: 25.0 ± 4.9 h
  Vssobs: 56.3 ± 9.4 L/m^2
[1]; 75 mg/m2, AUCinf
  AUC(0-inf): 46100 ± 6120 ng·h/mL
[1]; 75 mg/m2, Cmax
  Cmax: 5050 ± 1720 ng/mL
[1]; T1/2, averaged
  half-life: 19 h
[1]; T1/2 ± SD
  half-life: 22 ± 11 h
[1]; T ½, Average
  half-life: 18.5 ± 4.6 h
[1]; T ½, Range
  half-life: 10 to 33 h
[1]; terminal half-life
  half-life: ~19 h
[1]; terminal half-life (T1/2)
  half-life: ~21 h
[1]; terminal half-life (T1/2), range
  half-life: 13 to 49 h
[2]
  repair of induced DNA damage (gH2AX foci) in the absence of DNA-PK: not effectively repaired
[3]; SNS-595 dosed simultaneously with various cytotoxics, HCT116, Fa=0.5
  combination indices: significantly synergistic or at least additive
[3]; [5]
  combination effect with docetaxel: might have been antagonistic
  combination effect with gemcitabin: might have been antagonistic
[3]; treated with the first agent, washed and then treated with the second agent (2 hr wash and 24 hr wash), HCT116
  combination effect with docetaxel or gemcitabin: Additivity or possibly synergy
[4]
  solubility: increased solubility
